Experimental findings from patent publication EP3575287A1, “INHIBITORS OF N-ACYLPHOSPHATIDYLETHANOLAMINE PHOSPHOLIPASE D (NAPE-PLD)” (Universiteit Leiden, priority 2018, dated 2019) are described below.

The target in this test is T1, human NAPE-PLD (Homo sapiens, UniProt Q6IQ20).
T1 construct: Full length human cDNA NAPE-PLD was obtained from Natsuo Ueda; made in house; host or cells: HEK293T cells, transient transfection (pcDNA3.1); membrane fraction used
T1 sequence (Q6IQ20 whole entry): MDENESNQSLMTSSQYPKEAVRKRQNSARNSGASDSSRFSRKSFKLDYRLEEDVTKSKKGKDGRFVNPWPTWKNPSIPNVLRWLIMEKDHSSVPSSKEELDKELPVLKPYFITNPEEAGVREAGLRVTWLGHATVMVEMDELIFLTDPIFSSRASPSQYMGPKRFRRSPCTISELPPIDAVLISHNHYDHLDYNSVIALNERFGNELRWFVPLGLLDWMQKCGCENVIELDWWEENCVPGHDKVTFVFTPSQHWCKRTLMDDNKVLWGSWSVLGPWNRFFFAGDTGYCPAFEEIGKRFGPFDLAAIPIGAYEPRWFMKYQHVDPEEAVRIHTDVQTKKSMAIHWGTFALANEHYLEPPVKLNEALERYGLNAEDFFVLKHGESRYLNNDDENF
Kind of test: In vitro NAPE-PLD activity assay. The format is biochemical. The note with it: membrane protein fraction of HEK293T cells overexpressing human NAPE-PLD; substrate PED6 1 µM; 30 minutes preincubation at 37 °C. On the procedure:
Full length human cDNA NAPE-PLD was obtained from Natsuo Ueda^1 and cloned into mammalian expression vector pcDNA3.1, containing a C-terminal Flag-tag and genes for ampicillin and neomycin resistance. All plasmids were grown in XL-10 Z-competent cells and prepped (Maxi Prep, Qiagen). Sequence analysis for the confirmation of the sequences was performed at the Leiden Genome Technology Centre.
HEK293T were cultured at 37 °C and 7% CO2 in DMEM (Sigma Aldrich, D6546) with glutamax, penicillin (100 µg/ml), streptomycin (100 µg/ml) and 10% New Born Calf Serum iron supplemented (Hyclone SH30072.03). Cells were passaged twice a week to appropriate confluence.
24 hours before transfection 10^7 cells are seeded on a 15 cm dish. Two hours before transfection medium is refreshed, low volume. Transfection is performed with PEI in a ratio of 3:1 with human NAPE-PLD or Mock pcDNA3.1 Neo, 20 µg per dish. Medium is refreshed after 24 hours and cells are harvested after 72 hours.
Cell pellets are re-suspended in lysis buffer: 20 mM Hepes, 2 mM DTT, 0.25 M sucrose, 1 mM MgCl2, 2.5 U/ml benzonase and incubated 30 minutes on ice. The cytosolic fraction (supernatant) is separated from the membranes by ultra-centrifugation (32000 rpm for 30 minutes 100,000g). The pellet is resuspended in storage buffer: 20 mM Hepes, 2 mM DTT (membrane fraction). All samples are stored at -80°C. Enzyme concentrations are determined using a Bradford assay.
The NAPE-PLD activity assay is based on a previously reported method with small alterations.^2 The membrane protein fraction from transient overexpression of human NAPE-PLD in HEK293T cells was diluted to 0.4 mg/ml in assay buffer: 50 mM Tris-HCl (pH 7.5), 0.02% Triton X-100, 150 mM NaCl. The substrate PED6 (Invitrogen) 1 mM stock was consecutively diluted in DMSO (10x) and in assay buffer (10x) to make a 10 µM working solution. […] The assay is performed in a dark Greiner 96 wells plate, end volume 100 µl. The compound or DMSO is incubated with membrane protein lysate (final concentration 0.04 mg/ml) for 30 minutes at 37 °C. […] Mock lysate with DMSO is used for background substraction. IC50 curves are generated used Graphpad Prism v6.
With `O=C(NCC1CC1)c1cc(N2CC[C@H](O)C2)nc(N2CCC[C@@H](c3ccccc3)C2)n1` [Example 40, N-(cyclopropylmethyl)-6-((S)-3-hydroxypyrrolidin-1-yl)-2-((S)-3-phenylpiperidin-1-yl)pyrimidine-4-carboxamide], inhibition was half-maximal at 72.4 nM (IC50). For `CC(C)N(CCc1ccccc1)c1nc(C(=O)NCC2CC2)cc(N2CCOCC2)n1` [Example 50, N-(cyclopropylmethyl)-2-(isopropyl(phenethyl)amino)-6-morpholinopyrimidine-4-carboxamide] the value was 282 nM; for `CN(CCc1ccccc1)c1nc(C(=O)NCC2CC2)cc(N2CCC(F)(F)C2)n1` [Example 31, N-(cyclopropylmethyl)-6-(3,3-difluoropyrrolidin-1-yl)-2-(methyl(phenethyl)amino)pyrimidine-4-carboxamide], 1170 nM; for `O=C(NCC1CC1)c1cc(N2CC[C@@H](O)C2)nc(N2CCC[C@H](c3ccccc3)C2)n1` [Example 42, N-(cyclopropylmethyl)-6-((R)-3-hydroxypyrrolidin-1-yl)-2-((R)-3-phenylpiperidin-1-yl)pyrimidine-4-carboxamide], 324 nM. Next, `O=C(NCC1CC1)c1cc(N2CCOCC2)nc(N2CCCC(c3ccccc3)C2)n1` (centres unmarked) [Example 52, N-(cyclopropylmethyl)-6-morphol ino-2-(3-phenylpiperidin-1-yl)pyrimidine-4-carboxamide]: 380 nM.

Consider `CN(CCc1ccccc1Oc1ccccc1)c1nc(C(=O)NCC2CC2)cc(N2CCOCC2)n1` [Example 67, N-(cyclopropylmethyl)-2-(methyl(2-phenoxyphenethyl)amino)-6-morpholinopyrimidine-4-carboxamide], for which the IC50 is 603 nM. Molecule `C#CCNC(=O)c1cc(N2CCOCC2)nc(N(C)CCc2ccccc2)n1` [Example 8, 2-(methyl(phenethyl)amino)-6-morpholino-N-(prop-2-yn-1-yl)pyrimidine-4-carboxamide] showed an IC50 of 912 nM. For `O=C(NCC1CC1)c1cc(N2CCOCC2)nc(N2CCC[C@@H](c3ccccc3)C2)n1` [Example 46, (S)-N-(cyclopropylmethyl)-6-morpholino-2-(3-phenylpiperidin-1-yl)pyrimidine-4-carboxamide] the value was 209 nM; for `O=C(NCC1CC1)c1cc(N2CCOCC2)nc(N2CCOC(c3ccccc3)C2)n1` (centres unmarked) [Example 37, N-(cyclopropylmethyl)-6-morpholino-2-(2-phenylmorpholino)pyrimidine-4-carboxamide], 1230 nM. Next, `CN(CCc1ccccc1)c1cc(N2CCOCC2)cc(C(=O)NCC2CC2)n1` [Example 79, N-(cyclopropylmethyl)-6-(methyl(phenethyl)amino)-4-morpholinopicolinamide]: 10500 nM. For `CCN(CC)c1cc(C(=O)NCC2CC2)nc(N(C)CCc2ccccc2)n1` [Example 20, N-(cyclopropylmethyl)-6-(diethylamino)-2-(methyl(phenethyl)amino)pyrimidine-4-carboxamide] the value was 501 nM; for `O=C(NCC1CC1)c1cc(N2CCOCC2)nc(NCCc2ccccc2)n1` [Example 47, N-(cyclopropylmethyl)-6-morpholino-2-(phenethylamino)pyrimidine-4-carboxamide], 2750 nM.

On to `CN(CCc1cccc(Cl)c1)c1nc(C(=O)NCC2CC2)cc(N2CCOCC2)n1` [Example 66, 2-((3-chlorophenethyl)(methyl)amino)-N-(cyclopropylmethyl)-6-morpholinopyrimidine-4-carboxamide], for which the IC50 was 2450 nM. Next, `CN(Cc1ccccc1)c1cc(C(=O)NCC2CC2)nc(N(C)CCc2ccccc2)n1` [Example 28, N-(cyclopropylmethyl)-2-(methyl(phenethyl)amino)-6-(benzyl(methyl)amino)pyrimidine-4-carboxamide]: 1100 nM.

In turn, `CN(CCc1ccccc1)c1cc(C(=O)NCC2CC2)cc(N2CCOCC2)n1` [Example 75, N-(cyclopropylmethyl)-2-(methyl(phenethyl)amino)-6-morpholino isonicotinamide] gave an IC50 of 1450 nM. For `CN(CCc1ccccc1-c1ccccc1)c1nc(C(=O)NCC2CC2)cc(N2CCOCC2)n1` [Example 71, 2-((2-([1,1'-biphenyl]-2-yl)ethyl)(methyl)amino)-N-(cyclopropylmethyl)-6-morpholino-pyrimidine-4-carboxamide] the value was 490 nM; for `CN(CCc1ccccc1)c1nc(C(=O)NCC2CC2)cc(N2CCOCC2)n1` [Example 49, N-(cyclopropylmethyl)-2-(methyl(phenethyl)amino)-6-morpholinopyrimidine-4-carboxamide], 708 nM; for `CN1CCN(c2cc(C(=O)NCC3CC3)nc(N(C)CCc3ccccc3)n2)CC1` [Example 7, N-(cyclopropylmethyl)-2-(methyl(phenethyl)amino)-6-(4-methylpiperazin-1-yl)pyrimidine-4-carboxamide], 1580 nM. For the molecule `CCCCNC(=O)c1cc(N2CCOCC2)nc(N(C)CCc2ccccc2)n1` [Example 9, N-butyl-2-(methyl (phenethyl)amino)-6-morpholinopyrimidine-4-carboxamide], half-maximal inhibition (IC50) required 6760 nM. For `CN(CCc1ccc(C(F)(F)F)cc1)c1nc(C(=O)NCC2CC2)cc(N2CCOCC2)n1` [Example 56, N-(cyclopropylmethyl)-2-(methyl(4-(trifluoromethyl)phenethyl)amino)-6-morpholino-pyrimidine-4-carboxamide] the value was 6170 nM; for `CN(CCc1ccccc1)c1nc(C(=O)NCC2CC2)cc(N2CCC(O)C2)n1` (centres unmarked) [Example 32, N-(cyclopropylmethyl)-6-(3-hydroxypyrrolidin-1-yl)-2-(methyl(phenethyl)amino)pyrimidine-4-carboxamide], 224 nM; for `COc1ccc(CC2CCCCN2c2nc(C(=O)NCC3CC3)cc(N3CCOCC3)n2)cc1` (centres unmarked) [Example 73, N-(cyclopropylmethyl)-2-(2-(4-methoxybenzyl)piperidin-1-yl)-6-morpholinopyrimidine-4-carboxamide], 2570 nM. For `CN(CCc1ccccc1)c1nc(C(=O)NCC2CC2)cc(N2CCSCC2)n1` [Example 5, N-(cyclopropylmethyl)-2-(methyl(phenethyl)amino)-6-thiomorpholinopyrimidine-4-carboxamide] the value was 2630 nM; for `C#CCNC(=O)c1cc(N2CC[C@H](O)C2)nc(N2CCN(C(=O)c3ccc(C4(C(F)(F)F)N=N4)cc3)CC2)n1` [Example 45, (S)-6-(3-hydroxypyrrolidin-1-yl)-N-(prop-2-yn-1-yl)-2-(4-(4-(3-(trifluoromethyl)-3H-diazirin-3-yl)benzoyl)piperazin-1-yl)pyrimidine-4-carboxamide], 617 nM; for `CN(CCc1ccccc1)c1nc(C(=O)NCC2CC2)cc(N2CC[C@H](O)C2)n1` [Example 39, (S)-N-(cyclopropylmethyl)-6-(3-hydroxypyrrolidin-1-yl)-2-(methyl(phenethyl)amino)pyrimidine-4-carboxamide], 234 nM. `COc1ccccc1CCN(C)c1nc(C(=O)NCC2CC2)cc(N2CCOCC2)n1` [Example 83, N-(cyclopropylmethyl)-2-((2-methoxyphenethyl)(methyl)amino)-6-morpholinopyrimidine-4-carboxamide]: the IC50 is 776 nM. Consider `O=C(NCC1CC1)c1cc(N2CCOCC2)nc(N2CCC(c3ccccc3)C2)n1` (centres unmarked) [Example 51, N-(cyclopropylmethyl)-6-morphol ino-2-(3-phenylpyrrolidin-1-yl)pyrimidine-4-carboxamide], for which the half-inhibitory concentration (IC50) is 2190 nM. Next, `O=C(NCC1CC1)c1cc(N2CCOCC2)nc(N(CCc2ccccc2)Cc2ccccc2)n1` [Example 65, 2-(benzyl(phenethyl)amino)-N-(cyclopropylmethyl)-6-morpholinopyrimidine-4-carboxamide]: 1120 nM; `CN(CCO)c1cc(C(=O)NCC2CC2)nc(N(C)CCc2ccccc2)n1` [Example 30, N-(cyclopropylmethyl)-6-((2-hydroxyethyl)(methyl)amino)-2-(methyl(phenethyl)amino)pyrimidine-4-carboxamide]: 1000 nM.
